Assay results as given in the NIST ThermoML archive (doi:10.1021/je700350b).

Assay: xn = mol fraction of the nth substance listed
Settings: for viscosity: 101.33 kPa; for viscosity / binary diffusion coefficient: Liquid; for surface tension liquid-gas: Ring tensiometer; for binary diffusion coefficient: 101 kPa, Taylor dispersion method

CCN(CC)CCO [(diethylamino)ethanol] + O
Settings	binary diffusion coefficient [m2/s]	surface tension liquid-gas [mN/m]	viscosity [mPa·s]
298.15 K, x1 = 0.1483	–	–	8.96
298.15 K, x1 = 0.1603	–	–	9.677
298.15 K, x1 = 0.1704	–	–	10.26
298.15 K, x1 = 0.1905	–	–	11.31
298.15 K, x1 = 0.2004	–	–	11.76
298.15 K, x1 = 0.2104	–	–	12.22
298.15 K, x1 = 0.22	–	–	12.66
298.15 K, x1 = 0.2301	–	–	13.04
298.15 K, x1 = 0.2401	–	–	13.42
298.15 K, x1 = 0.253	–	–	13.84
298.15 K, x1 = 0.2674	–	–	14.24
298.15 K, x1 = 0.2701	–	–	14.25
298.15 K, x1 = 0.2801	–	–	14.55
298.15 K, x1 = 0.29	–	–	14.76
298.15 K, x1 = 0.3022	–	–	14.98
298.15 K, x1 = 0.35	–	–	15.43
298.15 K, x1 = 0.3999	–	–	14.98
298.15 K, x1 = 0.4507	–	–	14.58
298.15 K, x1 = 0.5001	–	–	13.45
298.15 K, x1 = 0.5504	–	–	12.29
298.15 K, x1 = 0.6001	–	–	10.96
298.15 K, x1 = 0.6514	–	–	9.672
298.15 K, x1 = 0.7	–	–	8.576
298.15 K, x1 = 0.7508	–	–	7.471
298.15 K, x1 = 0.8001	–	–	6.597
298.15 K, x1 = 0.8508	–	–	5.743
298.15 K, x1 = 0.9001	–	–	5.063
298.15 K, x1 = 0.9501	–	–	4.494
298.15 K, x1 = 1	–	–	4.01
303.15 K, x1 = 0.00104	–	60.06	–
303.15 K, x1 = 0.00111	–	59.95	–
303.15 K, x1 = 0.0013	–	59.24	–
303.15 K, x1 = 0.00278	7.11e-10	–	–
303.15 K, x1 = 0.00336	–	51.86	–
303.15 K, x1 = 0.00503	–	50.47	–
303.15 K, x1 = 0.00524	6.5e-10	–	–
303.15 K, x1 = 0.00679	–	46.5	–
303.15 K, x1 = 0.00781	6.39e-10	–	–
303.15 K, x1 = 0.01005	–	–	1.062
303.15 K, x1 = 0.01032	5.82e-10	–	–
303.15 K, x1 = 0.01281	5.63e-10	–	–
303.15 K, x1 = 0.01536	5.39e-10	–	–
303.15 K, x1 = 0.01779	4.82e-10	–	–
303.15 K, x1 = 0.02016	–	–	1.333
303.15 K, x1 = 0.02026	4.54e-10	–	–
303.15 K, x1 = 0.02372	–	39.92	–
303.15 K, x1 = 0.02731	4.06e-10	–	–
303.15 K, x1 = 0.0382	3.14e-10	–	–
303.15 K, x1 = 0.03976	–	–	2.025
303.15 K, x1 = 0.03998	–	35.96	–
303.15 K, x1 = 0.05015	–	–	2.464
303.15 K, x1 = 0.05024	2.55e-10	–	–
303.15 K, x1 = 0.06011	–	34.47	–
303.15 K, x1 = 0.06028	–	–	2.899
303.15 K, x1 = 0.07004	–	–	3.354
303.15 K, x1 = 0.07276	–	33.87	–
303.15 K, x1 = 0.07362	1.77e-10	–	–
303.15 K, x1 = 0.08051	–	–	3.86
303.15 K, x1 = 0.08982	–	–	4.289
303.15 K, x1 = 0.09846	1.53e-10	–	–
303.15 K, x1 = 0.11	–	–	5.269
303.15 K, x1 = 0.12	–	–	5.728
303.15 K, x1 = 0.1247	1.37e-10	–	–
303.15 K, x1 = 0.1253	–	32.48	–
303.15 K, x1 = 0.1301	–	–	6.216
303.15 K, x1 = 0.1401	–	–	6.673
303.15 K, x1 = 0.1476	1.29e-10	–	–
303.15 K, x1 = 0.1511	–	–	7.151
303.15 K, x1 = 0.1603	–	–	7.537
303.15 K, x1 = 0.1704	–	–	7.965
303.15 K, x1 = 0.1749	–	30.78	–
303.15 K, x1 = 0.1801	1.32e-10	–	–
303.15 K, x1 = 0.1897	–	–	8.687
303.15 K, x1 = 0.1998	–	–	9.003
303.15 K, x1 = 0.2104	–	–	9.393
303.15 K, x1 = 0.22	–	–	9.709
303.15 K, x1 = 0.2301	–	–	9.979
303.15 K, x1 = 0.2401	–	–	10.26
303.15 K, x1 = 0.2498	–	–	10.48
303.15 K, x1 = 0.2503	–	30.81	–
303.15 K, x1 = 0.2674	–	–	10.84
303.15 K, x1 = 0.2701	–	–	10.86
303.15 K, x1 = 0.2801	–	–	11.05
303.15 K, x1 = 0.29	–	–	11.21
303.15 K, x1 = 0.3003	–	–	11.25
303.15 K, x1 = 0.35	–	–	11.5
303.15 K, x1 = 0.3515	–	29.72	–
303.15 K, x1 = 0.3997	–	–	11.47
303.15 K, x1 = 0.4018	–	29.34	–
303.15 K, x1 = 0.433	–	–	11.12
303.15 K, x1 = 0.4995	–	–	10.24
303.15 K, x1 = 0.5038	–	29.22	–
303.15 K, x1 = 0.5498	–	–	9.382
303.15 K, x1 = 0.5997	–	–	8.485
303.15 K, x1 = 0.608	–	28.83	–
303.15 K, x1 = 0.6499	–	–	7.581
303.15 K, x1 = 0.7001	–	–	6.746
303.15 K, x1 = 0.712	–	28.65	–
303.15 K, x1 = 0.7498	–	–	5.97
303.15 K, x1 = 0.7503	–	28.3	–
303.15 K, x1 = 0.8	–	–	5.299
303.15 K, x1 = 0.8499	–	–	4.701
303.15 K, x1 = 0.8542	–	27.91	–
303.15 K, x1 = 0.9	–	–	4.196
303.15 K, x1 = 0.95	–	–	3.742
303.15 K, x1 = 1	–	27.2	3.375
